Measurements as given in paper doi:10.1101/2023.10.11.561987v1, “Resolving the pharmacological redox-sensitivity of SARS-CoV-2 PLpro in drug repurposing screening enabled identification of the competitive GRL-0617 binding site inhibitor CPI-169” (biorxiv, 2023).

Biological target: T1, SARS-CoV-2 PLpro-NAB (Severe acute respiratory syndrome coronavirus 2, UniProt P0DTD1)
T1 construct: gene rep; nsp3 fragment with PLpro and NAB domains, cut from replicase polyprotein 1a/1ab; His tag removed by TEV; E. coli BL21(DE3), pET24b
Assay: biochemical
Assay type: biochemical

`NC(Cc1cc(O)c(O)cc1O)C(=O)O` (racemic) [6-Hydroxy-DL-DOPA] gave an IC50 greater than 20 µM.

For `Cc1nc2c(=O)n(C)c(=O)nc-2n(C)n1` [3-Methyl Toxoflavin], the IC50 was 0.074 µM.
